Source: patent US12624004B2 (Fudan University, priority 2019, dated 2026)
Structures can show the parent of a compound that is named as a salt. Where two headings read alike, the source gives them in different places.

Experiments:
[1] = target: T1, δ opioid receptor (Homo sapiens, UniProt P41143); test: Competition binding assay on membranes of CHO cells expressing δ opioid receptor, [3H]-labeled ligand; details: for inhibition at 10 µM / inhibition at 1 µM: 0.5 h; for inhibition at 10 µM: Table 1-1, 10 μM concentration of compound; for Ki: read-out: δOR Ki; for inhibition at 1 µM: 1 μM concentration of compound
T1 construct: expressed in transfected cells; host or cells: CHO cells (membranes)
Method: (§1) CHO cells expressing p opioid receptor, δ opioid receptor and κ opioid receptor were cultured in 10 cm^2 culture dishes (F-12 medium+10% neonatal bovine serum) for several days, and the culture fluid was aspirated after the cells had grown to the bottom of the dishes; 3 ml of PBS/EDTA solution (0.1M NaCl, 0.01M NaH2PO4, 0.04% EDTA) was added to digest the cells for 3-5 min. Add ice-cold homogenate (50 mM HEPES PH 7.4, 3 mM MgCl, 1 mM EGTA) to the centrifuge tube, transfer the solution and sediment to a homogenizer and homogenize; then transfer the homogenate to a centrifuge tube and centrifuge at 18000 rpm. Centrifuge for 15 min, two times; the obtained precipitate was homogenized with appropriate amount of 50 mM Tris-HCl, pH 7.4 buffer and divided into centrifuge tubes and stored at −70° C. in the refrigerator until use.
(§2) The total binding tube was spiked with 20-30 μg of the expressed membrane receptor protein and […] ligand (1-2 nM), the corresponding non-specific binding tube was spiked with 1 μM of the corresponding ligand, and the sample tubes were spiked with various screened opioid ligands in a final volume of […], incubated at 30° C. for 30 min, and the reaction was terminated in ice water. […] The samples were filtered under negative pressure through GF/C (whatman) glass fiber filter paper on a Millipore sample collector. The reaction was rinsed three times with 4 ml of 50 mMV Tris-HCl (pH 7.4), the filter paper was dried and placed in 0.5 ml Eppendorf tubes with 0.5 ml of lipophilic scintillation solution, the radioactivity was measured by PERKIN ELMER PRI-CARB 2910 liquid scintillation counter and the inhibition rate was calculated. Inhibition rate (or binding rate)=(total binding rate dpm−sample tube dpm)/(total binding tube dpm−non-specific binding tube dpm)×100%
(§3) IC50 was calculated using Prism 5.0 software. the Ki value was calculated as follows, Ki=IC50/(1+[IL]/Kd), [lL] is the concentration of the added labeled ligand and Kd is the equilibrium dissociation parameter of the labeled ligand.
(§4) CHO cells expressing p opioid receptor, δ opioid receptor and κ opioid receptor were cultured in a 10 cm^2 culture dish (F-12 medium+10% neonatal bovine serum) for several days, and the culture fluid was aspirated after the cells grew to the bottom of the dish. 3 mL PBS/EDTA solution (0.1 M NaCl, 0.01 M NaH2PO4, 0.04% EDTA) was added to digest the cells for 3˜5 min, blew with a pipette to completely dislodge the cells. The cells were collected in a 40 mL centrifuge tube, centrifuged at 5000 rpm for 5 min. The supernatant was removed and the ice-cold homogenate (50 mM HEPES pH 7.4, 3 mM MgCl2, 1 mM EGTA) was added to the centrifuge tube. The solution and the precipitate were transferred to a homogenizer. Then the homogenate was transferred to a centrifuge tube and centrifuged at 18000 rpm for 15 min. The precipitate was centrifuged twice at 18000 rpm for 15 min. The obtained precipitate was homogenized by adding appropriate amount of 50 mM Tris-HCl, pH 7.4 buffer and divided into centrifuge tubes and stored at −70° C. in the refrigerator until use.
(§5) The total binding tube was added with 20-30 μg of expressed membrane receptor protein and [3H]-labeled ligand (1-2 nM). The corresponding non-specific binding tube was added with 1 μM of the corresponding ligand, and the sample tubes were added with various screened opioid ligands in a final volume of 100 μL. All of them were incubated for 30 min at 30° C., and the reaction was terminated in ice water. The samples were filtered under negative pressure through GF/C (Whatman) glass fiber filter paper on a Millipore sample collector. The reaction was rinsed three times with 4 mL of 50 mM Tris-HCl (pH 7.4), the filter paper was dried and placed in 0.5 mL Eppendorf tubes with 0.5 mL of lipophilic scintillation solution. […]

[2] = target: T2, κ opioid receptor (Homo sapiens, UniProt P41145); test: Competition binding assay on membranes of CHO cells expressing κ opioid receptor, [3H]-labeled ligand; details: for inhibition at 10 µM / inhibition at 1 µM: 0.5 h; for inhibition at 10 µM: 10 μM concentration of compound; for Ki: read-out: κOR Ki; for inhibition at 1 µM: 1 μM concentration of compound
T2 construct: expressed in transfected cells; host or cells: CHO cells (membranes)
Method: as §1, §2, §3, §4, §5

[3] = target: T3, μ opioid receptor (Homo sapiens, UniProt P35372); test: Competition binding assay on membranes of CHO cells expressing μ opioid receptor, [3H]-labeled ligand; details: for inhibition at 10 µM: Table 1-1, 10 μM concentration of compound, mean ± SD of three measurements, read-out: μOR Binding rate (%); for Ki: read-out: μOR Ki
T3 construct: expressed in transfected cells; host or cells: CHO cells (membranes)
Method: as §1, §2, §3, §4, §5

[4] = Table 1-1, read-out: κOR Binding rate (%)
[5] = Table 4-1, read-out: δOR Binding rate (%)
[6] = Table 4-1, read-out: κOR Binding rate (%)

## COc1cccc(C2(OC(=O)c3ccccc3)CCC(N(C)S(=O)(=O)Cc3ccccc3)CC2CN(C)C)c1 (stereo not drawn)
[1]; read-out: δOR Binding rate (%)
  inhibition at 10 µM: 30.1 ± 14.9%
[2]; [4]
  inhibition at 10 µM: 35.7 ± 3%
[3]
  inhibition at 10 µM: 81.2 ± 4.2%

## COc1cccc(C2(OC(=O)c3ccccc3)CCC(NS(=O)(=O)c3ccccc3)CC2CN(C)C)c1 (stereo not drawn)
[1]; read-out: δOR Binding rate (%)
  inhibition at 10 µM: 17.4 ± 2.5%
[2]; [4]
  inhibition at 10 µM: 51.5 ± 6.6%
[3]
  inhibition at 10 µM: 80.9 ± 4.4%

## COc1cccc(C2(OC(=O)c3ccccc3)CCC(N(C)S(=O)(=O)Cc3cccc(Cl)c3)CC2CN(C)C)c1 (stereo not drawn)
[1]; read-out: δOR Binding rate (%)
  inhibition at 10 µM: 4.8%
[2]; [4]
  inhibition at 10 µM: 25.5 ± 6.1%
[3]
  inhibition at 10 µM: 89.8 ± 4.6%

## COc1cccc(C2(O)CCC(N(Cc3ccccc3)S(=O)(=O)c3cccc(Cl)c3)CC2CN(C)C)c1 (stereo not drawn)
[1]; read-out: δOR Binding rate (%)
  inhibition at 10 µM: 5.1%
[2]; Table 1-1
  Ki: 9.81 ± 0.32 nM
[3]
  inhibition at 10 µM: 85.8 ± 3.2%

## COc1cccc(C2(O)CCC(N(Cc3ccccc3)S(=O)(=O)c3ccccc3)CC2CN(C)C)c1 (stereo not drawn)
[1]; read-out: δOR Binding rate (%)
  inhibition at 10 µM: 9.53%
[2]; [4]
  inhibition at 10 µM: 84.7 ± 2.1%
[3]
  inhibition at 10 µM: 70.5 ± 2.3%

## CN(C)C[C@@H]1CN(C(=O)Cc2cc(F)c(F)cc2F)CC[C@@]1(O)c1cccc(O)c1
[1]; Table 4-1
  Ki: 178 ± 17.9 nM
[2]; Table 4-1
  Ki: 127 ± 1.6 nM
[3]; Table 4-1
  Ki: 1.77 ± 0.18 nM

## COc1cccc([C@]2(O)CCN(C(=O)Cc3cc(F)c(F)cc3F)C[C@H]2CN(C)C)c1
[1]; [5]
  inhibition at 1 µM: 26.6 ± 3.9%
[2]; [6]
  inhibition at 1 µM: 33 ± 4.1%
[3]; Table 4-1
  Ki: 165 ± 22.3 nM

## CN(C)C[C@H]1CN(C(=O)Cc2cc(F)c(F)cc2F)CC[C@]1(O)c1cccc(O)c1
[1]; Table 4-1
  Ki: 3560 ± 96.5 nM
[2]; Table 4-1
  Ki: 42.3 ± 0.6 nM
[3]; Table 4-1
  Ki: 53.5 ± 0.09 nM

## COc1cccc([C@@]2(O)CCN(C(=O)Cc3cc(F)c(F)cc3F)C[C@@H]2CN(C)C)c1
[1]; [5]
  inhibition at 1 µM: 0%
[2]; [6]
  inhibition at 1 µM: 23.4 ± 3.9%
[3]; Table 4-1
  Ki: 2310 ± 234 nM

## COc1cccc(C2(O)CCC(S(=O)(=O)Cc3ccccc3)CC2CN(C)C)c1 (stereo not drawn) [4-(Benzylsulfonyl)-2-((dimethylamino)methyl)-1-(3-methoxyphenyl) cyclohexane-1-ol hydrochloride]
[1]; read-out: δOR Binding rate (%)
  inhibition at 10 µM: 44 ± 7.85%
[2]; [4]
  inhibition at 10 µM: 47.7 ± 3.1%
[3]
  inhibition at 10 µM: 98.6 ± 1.2%

## CN(C)C[C@@H]1CN(S(=O)(=O)Cc2ccccc2)CC[C@@]1(O)c1cccc(O)c1 [(3R,4S)-1-(Benzylsulfonyl)-3-((dimethylamino)methyl)-4-(3-hydroxyphenyl)piperidin-4-ol hydrochloride]
[1]; Table 4-1
  Ki: 1100 ± 42 nM
[2]; Table 4-1
  Ki: 33.7 ± 3.26 nM
[3]; Table 4-1
  Ki: 0.17 ± 0.01 nM

## COc1cccc([C@]2(O)CCN(S(=O)(=O)Cc3ccccc3)C[C@H]2CN(C)C)c1 [(3R,4S)-1-(Benzylsulfonyl)-3-((dimethylamino)methyl)-4-(3-methoxyphenyl)piperidin-4-ol hydrochloride salt]
[1]; Table 4-1 footnote a, 0.1 μM, read-out: δOR Inhibition rate
  inhibition at 0.1 µM: 10.5 ± 3.7%
[2]; Table 4-1 footnote a, 0.1 μM, read-out: κOR Inhibition rate
  inhibition at 0.1 µM: 15.2 ± 1.56%
[3]; Table 4-1 footnote a, 0.1 μM, read-out: μOR Inhibition rate
  inhibition at 0.1 µM: 27.5 ± 1.54%

## CN(C)C[C@H]1CN(S(=O)(=O)Cc2ccccc2)CC[C@]1(O)c1cccc(O)c1 [(3S,4R)-1-(Benzylsulfonyl)-3-((dimethylamino)methyl)-4-(3-hydroxyphenyl)piperidin-4-ol hydrochloride]
[1]; Table 4-1
  Ki: 1089 ± 9 nM
[2]; Table 4-1
  Ki: 231 ± 13.1 nM
[3]; Table 4-1
  Ki: 38.3 ± 1.18 nM

## COc1cccc(C2(O)CCN(C(=O)Cc3ccccc3Cl)CC2CN(C)C)c1 (stereo not drawn) [FWBE20, 2-(2-Chlorophenyl)-1-(3-((dimethylamino)methyl)-4-hydroxy-4-(3-methoxyphenyl)piperidin-1-yl)ethyl-1-one hydrochloride]
[1]; Table 5-1, read-out: δOR Combination rate (%)
  inhibition at 1 µM: 0%
[2]; Table 5-1, read-out: κOR Combination rate (%)
  inhibition at 1 µM: 34.8 ± 0.7%
[3]; 0.5 h, Table 5-1, 1 μM concentration of compound, read-out: μOR Combination rate (%)
  inhibition at 1 µM: 28.3 ± 7.2%

## COc1cccc(C2(O)CCC(NS(=O)(=O)c3ccccc3)CC2CN(C)C)c1 (stereo not drawn) [N-(3-((Dimethylamino)methyl)-4-hydroxy-4-(3-methoxyphenyl)cyclohexyl) benzenesulfonamide hydrochloride]
[1]; read-out: δOR Binding rate (%)
  inhibition at 10 µM: 38 ± 2.43%
[2]; [4]
  inhibition at 10 µM: 25.8 ± 7.9%
[3]
  inhibition at 10 µM: 75.8 ± 4.1%

## CN(C)CC1CN(S(=O)(=O)Cc2ccccc2)CCC1(O)c1cccc(OC(F)(F)F)c1.Cl (stereo not drawn) [hydrochloride]
[1]; Table 2-1, read-out: δOR Binding rate (%)
  inhibition at 1 µM: 40.8 ± 2.23%
[2]; Table 2-1, read-out: κOR Binding rate (%)
  inhibition at 1 µM: 21.4 ± 0.36%
[3]; Table 2-1
  Ki: 64.5 ± 1.76 nM

## COc1cccc(C2(OC(F)F)CCN(S(=O)(=O)Cc3ccccc3)CC2CN(C)C)c1.Cl (stereo not drawn) [hydrochloride]
[1]; Table 2-1 footnote a, at 0.1 μM, read-out: δOR Inhibition rate or binding rate
  inhibition at 0.1 µM: 0%
[2]; Table 2-1 footnote a, at 0.1 μM, read-out: κOR Inhibition rate or binding rate
  inhibition at 0.1 µM: 15.5 ± 4.1%
[3]; Table 2-1 footnote a, at 0.1 μM, read-out: μOR Inhibition rate or binding rate
  inhibition at 0.1 µM: 22.6 ± 9.8%
